By IC50 is commonly meant the concentration at which inhibition is half-maximal.

In one test the target is CRBN protein (Homo sapiens, UniProt Q96SW2). Description: Binding activity to E3 ubiquitin ligase CRBN (HTRF competitive binding kit, Thalidomide-Red).
Conditions: not given
An excerpt: Binding activity of the E3 ligase inhibitor disclosed in the present invention to E3 ubiquitin ligase CRBN
CRBN binding activity test kit (CEREBLON BINDING KITS (PE, 64BD CRBN PEG).
The detection is based on homogeneous time-resolved fluorescence (HTRF) technology.
This kit uses a europium-labeled GST antibody (GST Eu Cryptate Antibody) as the donor and XL665-labeled thalidomide (Thalidomide-Red reagent) as the receptor. The donor binds to the GST-tagged CRBN protein.
The donor and receptor were each diluted 50-fold using the buffer provided in the kit (PROTAC binding buffer 1). The CRBN protein was diluted 45-fold. An 8mM solution of the compound disclosed herein was diluted 10-fold using the diluent provided in the kit (1X diluent), followed by 7 successive 5-fold serial dilutions of the resulting solution.
The ratio of the acceptor and donor emission signals was calculated for each individual well.
IC50 values was calculated based on compound concentration, Ratio, and coefficient of variation using GraphPad Prism.
For orientation: In TR-FRET formats the signal depends on donor and acceptor labels being close together.
As for `O=C1CC[C@H](NC(=O)c2cc3c(cc2F)OC2(CCNCC2)CC3)C(=O)N1` [Compound A5, (S)-N-(2,6-dioxopiperidin-3-yl)-7-fluoro-spiro[2,4'-piperidine]-6-carboxamide], the IC50 came out at 20.8 µM.

On to `O=C1CC[C@H](NC(=O)c2cc3c(cc2F)CCC2(CNC2)O3)C(=O)N1` [Compound A7, (S)-N-(2,6-dioxopiperidin-3-yl)-6-fluoro-spiroazetidine-3,2-dihydropyridine-7-carboxamide], for which the IC50 is 27.4 µM.

As for `COc1cc2c(cc1C(=O)N[C@H]1CCC(=O)NC1=O)OCC21CCNCC1` [Compound A10, (S)-N-(2,6-dioxohesperidin-3-yl)-5-methoxy-2H-spiro[benzofuran-3,4'-piperidine]-6-carboxamide], the IC50 amounted to 24.5 µM.

`COc1cc2c(cc1C(=O)N[C@H]1CCC(=O)NC1=O)OC1(CCNCC1)CC2` [Compound A12, (S)-N-(2,6-dioxohesperidin-3-yl)-6-methoxyspiro[chroman-2,4'-pyridine]-7-carboxamide] showed an IC50 of 20.3 µM.

On to `O=C1CC[C@H](NC(=O)c2ccc3c(c2)OC[C@@H]2CNCCN32)C(=O)N1` [Compound B1], for which the IC50 is 40.3 µM.

For the molecule `COc1cc2c(cc1C(=O)N[C@H]1CCC(=O)NC1=O)OC[C@H]1CNCCN21` [Compound B4, (R)-N-((S)-2,6-Dioxyhesperidin-3-yl)-O-9-methoxy-1,2,3,4,4a,5-hexahydrobenzo[b]pyrazino[1,2-d][1,4]oxazine-8-carboxamide], the IC50 worked out at 10.9 µM.

Take `O=C1CC[C@H](NC(=O)c2ccc3c(c2F)OC[C@H]2CNCCN32)C(=O)N1` [Compound B5, (R)-N-((S)-2,6-Dioxyhesperidin-3-yl)-7-fluoro-1,2,3,4,4,4a,5-hexahydrobenzo[b]pyrazino[1,2-d][1,4]oxazine-8-carboxamide]: the IC50 came out at 60 µM.

In turn, `COc1c(C(=O)N[C@H]2CCC(=O)NC2=O)ccc2c1OC[C@H]1CNCCN21` [Compound B6, (R)-N-((S)-2,6-Dioxyhesperidin-3-yl)-7-methoxy-1,2,3,4,4a,5-hexahydrobenzo[b]pyrazino[1,2-d][1,4]oxazine-8-carboxamide] returned an IC50 of 49.1 µM.

With `COc1cc2c(cc1C(=O)N[C@H]1CCC(=O)NC1=O)OCC[C@H]1CNCCN21` [Compound B9, (S)-N-((S)-2,6-Dioxopiperidin-3-yl)-10-methoxy-2,3,4,4a,5,6-hexahydro-1H-benzo[b]pyrazine[1,2-d][1,4]oxazepine-9-carboxamide], the IC50 amounted to 13 µM.

Take `COc1cc2c(cc1C(=O)N[C@H]1CCC(=O)NC1=O)COC[C@H]1CNCCN21` [Compound B10, (R)-N-((S)-2,6-Dioxopiperidin-3-yl)-10-methoxy-1,2,3,4,4a,5-hexahydro-7H-benzo[e]pyrazino[2,1-c][1,4]oxacyclopropane-9-amide]: the IC50 was found to be 22.4 µM.

The same test, now with this note: competition with XL665-labeled thalidomide for GST-tagged CRBN protein, HTRF, 3 hours at room temperature.
For the molecule `COc1c(C(=O)N[C@H]2CCC(=O)NC2=O)ccc2c1OCC21CCNCC1` [Compound A8, (S)-N-(2,6-dioxohesperidin-3-yl)-7-methoxy-2H-spiro[benzofuran-3,4'-piperidine]-6-carboxamide], the IC50 was 24.6 µM.

For the molecule `COc1cc2c(cc1C(=O)N[C@H]1CCC(=O)NC1=O)CCC1(CCNCC1)O2` [Compound A11, (S)-N-(2,6-dioxyhesperidin-3-yl)-7-methoxyspiro[chroman-2,4'-piperidine]-6-carboxamide], the IC50 was found to be 14.4 µM.

The molecule `CN(C(=O)c1ccc2c(c1)OC[C@H]1CNCCN21)[C@H]1CCC(=O)NC1=O` [Compound B7, (R)-N-((S)-2,6-Dioxyhesperidin-3-yl)-N-methyl-1,2,3,4,4a,5-hexahydrobenzo[b]pyrazino[1,2-d][1,4]oxazine-8-carboxamide] came in with an IC50 of 5.32 µM.

As to `O=C1CCC(Nc2ccc3c(c2)CCC2(CCNCC2)O3)C(=O)N1` (stereo not shown) [Compound C3], the IC50 was 5.53 µM.

The molecule `O=C1CCC(Nc2ccc3c(c2)OC2(CCNCC2)CC3)C(=O)N1` (stereo not shown) [Compound C4, 3-(Spiro[2,4'-piperidino]-7-ylamino)piperidine-2,6-dione] had an IC50 of 10.1 µM.

Still in this test, the particulars now being: competition with XL665-labeled thalidomide for GST-tagged CRBN protein, HTRF, 3 hours at room temperature; read-out: IC50.
As to `Cn1c(=O)n(C2CCC(=O)NC2=O)c2ccc3c(c21)OC[C@H]1CNCCN31` (stereo in doubt) [Compound D6, 3-((R)-3-Methyl-2-oxo-2,3,5,5a,6,7,8,9-octahydro-1H-imidazo[4',5':5,6]benzo[1,2-b]pyrazino[1,2-d][1,4]oxazine-1-yl)piperidine-2,6-dione], the half-maximal inhibitory concentration (IC50) came out at 0.55 µM.

As to `O=C1CC[C@H](NC(=O)c2ccc3c(c2F)OCC32CCNCC2)C(=O)N1` [Compound A1, (S)-N-(2,6-dioxopiperidin-3-yl)-7-fluoro-2H-spiro[benzofuran-3,4'-piperidine]-6-carboxamide], the IC50 turned out to be 15.5 µM.

On to `O=C1CC[C@H](NC(=O)c2c(F)ccc3c2OCC32CCNCC2)C(=O)N1` [Compound A2, (S)-N-(2,6-dioxopiperidin-3-yl)-6-fluoro-2H-spiro[benzofuran-3,4'-piperidine]-7-carboxamide], for which the IC50 worked out at 11.9 µM.

Regarding `O=C1CC[C@H](NC(=O)c2cc3c(cc2F)OCC32CCNCC2)C(=O)N1` [Compound A3, (S)-N-(2,6-dioxopiperidin-3-yl)-6-fluoro-2H-spiro[benzofuran-3,4'-piperidine]-5-carboxamide], the IC50 turned out to be 52.8 µM.

On to `O=C1CC[C@H](NC(=O)c2cc3c(cc2F)C2(CCNCC2)CO3)C(=O)N1` [Compound A4, (S)-N-(2,6-dioxopiperidin-3-yl)-5-fluoro-2H-spiro[benzofuran-3,4'-piperidine]-6-carboxamide], for which the half-maximal inhibitory concentration (IC50) stood at 23.5 µM.

Consider `O=C1CC[C@H](NC(=O)c2cc3c(cc2F)CCC2(CCNCC2)O3)C(=O)N1` [Compound A6, (S)-N-(2,6-dioxopiperidin-3-yl)-6-fluorospiro[chroman-2,4'-piperidine]-7-carboxamide], for which the 50% inhibitory concentration (IC50) amounted to 35.3 µM.

As to `COc1cc2c(cc1C(=O)N[C@H]1CCC(=O)NC1=O)C1(CCNCC1)CO2` [Compound A9, (S)-N-(2,6-dioxopiperidin-3-yl)-6-methoxy-2H-spiro[benzofuran-3,4'-piperidine]-5-carboxamide], the IC50 came to 29.1 µM.

`O=C1CC[C@H](NC(=O)c2ccc3c(c2)OC[C@H]2CNCCN32)C(=O)N1` [Compound B2]: the IC50 came to 60.2 µM.

`O=C1CC[C@H](NC(=O)c2cc3c(cc2F)N2CCNC[C@@H]2CO3)C(=O)N1` [Compound B3, (R)-N-((S)-2,6-dioxyhesperidin-3-yl)-9-fluoro-1,2,3,4,4,4a,5-hexahydrobenzo[b]pyrazino[1,2-d][1,4]oxazine-8-carboxamide]: the IC50 turned out to be 45.1 µM.

As to `O=C1CC[C@H](NC(=O)c2cc3c(cc2F)N2CCNC[C@H]2CO3)C(=O)N1` [Compound B8, (S)-N-((S)-2,6-Dioxyhesperidin-3-yl)-9-fluoro-1,2,3,4,4,4a,5-hexahydrobenzo[b]pyrazino[1,2-d][1,4]oxazine-8-carboxamide], the concentration for half-maximal inhibition (IC50) is 27 µM.

In the case of `O=C1CC[C@H](NC(=O)c2ccc3c(c2)OCC[C@H]2CNCCN32)C(=O)N1` [Compound B11, (S)-N-((S)-2,6-Dioxopiperidin-3-yl)-2,3,4,4a,5,6-hexahydro-1H-benzo[b]pyrazino[1,2-d][1,4]oxazepine-9-carboxamide], the IC50 was found to be 54.8 µM.

For the molecule `O=C1CCC(Nc2ccc3c(c2)OCC32CCNCC2)C(=O)N1` (stereo not shown) [Compound C1], the IC50 amounted to 1.9 µM.

As to `O=C1CCC(Nc2ccc3c(c2)C2(CCNCC2)CO3)C(=O)N1` (stereo not shown) [Compound C2, 3-((2H-spiro[benzofuran-3,4'-piperidine]-5-yl)amino)piperidine-2,6-dione], the 50% inhibitory concentration (IC50) turned out to be 90.5 µM.

Take `O=C1CCC(Nc2ccc3c(c2)OC2(CCNCC2)C3)C(=O)N1` (stereo not shown) [Compound C5, 3-((3H-spiro[benzofuran-2,4'-piperidine]-6-yl)amino)piperidine-2,6-dione]: the IC50 amounted to 5.45 µM.

As for `O=C1CCC(Nc2ccc3c(c2)OCC2(CCNCC2)C3)C(=O)N1` (stereo not shown) [Compound C6, 3-(Spiro[benzopyran-3,4'-piperidine]-7-ylamino)piperidine-2,6-dione], the IC50 is 3.38 µM.

In the case of `O=C1CCC(Nc2ccc3c(c2)OC2(CC3)CNC2)C(=O)N1` (stereo not shown) [Compound C7, 3-(Spiro[azetidin-3,2'-chroman]-7'-ylamino)piperidine-2,6-dione], the IC50 was 10.2 µM.

As to `O=C1CCC(Nc2ccc3c(c2)CC2(CCNCC2)O3)C(=O)N1` (stereo not shown) [Compound C8, 3-((3H-spiro[benzofuran-2,4'-piperidine]-5-yl)amino)piperidine-2,6-dione], the IC50 stood at 16.4 µM.

With `O=C1CCC(Nc2ccc3c(c2)N2CCNC[C@@H]2CO3)C(=O)N1` (stereo partly drawn) [Compound C9, 3-(((R)-1,2,3,4,4a,5-Hexahydrobenzo[b]pyrazine[1,2-d][1,4]oxazine-9-yl)amino)piperidine-2,6-dione], the IC50 stood at 12.8 µM.

On to `CN(c1ccc2c(c1)OC[C@H]1CNCCN21)C1CCC(=O)NC1=O` (stereo partly drawn) [Compound C10, 3-(((R)-1,2,3,4,4a,5-Hexahydrobenzo[b]pyrazino[1,2-d][1,4]oxazine-8-yl)(methyl)amino)piperidine-2,6-dione], for which the half-inhibitory concentration (IC50) turned out to be 2.06 µM.

Regarding `O=C1CCC(Nc2ccc3c(c2)N2CCNC[C@@H]2CCO3)C(=O)N1` (stereo partly drawn) [Compound C11, 3-(((S)-2,3,4,4a,5,6-Hexahydro-1H-benzo[b]pyrazine[1,2-d][1,4]oxacyclopropane-10-yl)amino)piperidine-2,6-dione], the IC50 was determined as 21.1 µM.

In the case of `O=C1CCC(Nc2ccc3c(c2)OCC[C@H]2CNCCN32)C(=O)N1` (stereo partly shown) [Compound C12], the IC50 is 5.46 µM.

As for `O=C1CCC(Nc2ccc3c(c2)COC[C@H]2CNCCN32)C(=O)N1` (stereo partly shown) [Compound C13], the IC50 is 8.39 µM.

The values above are taken from EP4722219A1 (Gan & Lee Pharmaceuticals Co., Ltd., priority 2023, dated 2024).
